In patent US20110195900A1, “PEPTIDIC PTH RECEPTOR AGONISTS” (FERRING B.V., priority 2008, published 2011):
Non-standard residues stand in square brackets, D forms with d. Residues, ends and D or L forms follow the SMILES beside them. 1Nal = N[C@@H](Cc1cccc2ccccc12)C(=O)O; β3hI = CC[C@H](C)[C@H](N)CC(=O)O; Nle = CCCC[C@H](N)C(=O)O; Aib = CC(C)(N)C(=O)O

Assays:
human PTH-1 receptor = target: T1, human PTH-1 receptor (Homo sapiens, UniProt Q03431); assay: Reporter gene assay (CRE-luciferase) for agonist activity in transiently transfected HEK-293 cells; type: cell-based; details: for hPTHR-2/hPTHR-1: Table 3, ratio of EC50 values, selectivity for hPTH-1 receptor over hPTH-2 receptor
T1 construct: expressed in transfected cells; host or cells: HEK-293
T1 sequence (Q03431 27-593): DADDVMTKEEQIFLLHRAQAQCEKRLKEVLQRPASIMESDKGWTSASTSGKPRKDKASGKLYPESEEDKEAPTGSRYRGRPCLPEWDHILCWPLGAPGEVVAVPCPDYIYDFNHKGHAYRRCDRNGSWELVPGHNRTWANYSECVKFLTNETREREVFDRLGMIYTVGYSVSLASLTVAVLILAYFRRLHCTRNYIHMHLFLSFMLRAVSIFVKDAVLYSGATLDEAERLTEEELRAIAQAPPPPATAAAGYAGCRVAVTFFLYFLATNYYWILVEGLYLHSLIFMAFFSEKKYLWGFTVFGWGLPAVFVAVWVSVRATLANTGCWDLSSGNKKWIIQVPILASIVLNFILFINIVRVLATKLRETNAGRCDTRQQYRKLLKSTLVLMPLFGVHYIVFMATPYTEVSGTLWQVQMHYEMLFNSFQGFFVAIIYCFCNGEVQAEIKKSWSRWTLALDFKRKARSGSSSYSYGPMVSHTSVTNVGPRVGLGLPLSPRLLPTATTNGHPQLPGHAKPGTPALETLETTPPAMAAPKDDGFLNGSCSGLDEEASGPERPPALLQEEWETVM
How it was run: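 Selectivity came from luciferase transcriptional reporter assays expressing human PTH-2 receptor. PTH-1 agonism used transiently transfected HEK-293 cells carrying SV40-promoter receptor and cAMP-responsive-element luciferase; 4-5 h compound exposure, lysis, luminescence, non-linear-regression EC50/efficacy; ≥3 independent runs, PTH (1-34) control each.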

human PTH-2 receptor = target: T2, human PTH-2 receptor (Homo sapiens, UniProt P49190); assay: Luciferase-based transcriptional reporter gene assay for selectivity; type: cell-based
T2 construct: expressed in transfected cells
T2 sequence (P49190 25-550): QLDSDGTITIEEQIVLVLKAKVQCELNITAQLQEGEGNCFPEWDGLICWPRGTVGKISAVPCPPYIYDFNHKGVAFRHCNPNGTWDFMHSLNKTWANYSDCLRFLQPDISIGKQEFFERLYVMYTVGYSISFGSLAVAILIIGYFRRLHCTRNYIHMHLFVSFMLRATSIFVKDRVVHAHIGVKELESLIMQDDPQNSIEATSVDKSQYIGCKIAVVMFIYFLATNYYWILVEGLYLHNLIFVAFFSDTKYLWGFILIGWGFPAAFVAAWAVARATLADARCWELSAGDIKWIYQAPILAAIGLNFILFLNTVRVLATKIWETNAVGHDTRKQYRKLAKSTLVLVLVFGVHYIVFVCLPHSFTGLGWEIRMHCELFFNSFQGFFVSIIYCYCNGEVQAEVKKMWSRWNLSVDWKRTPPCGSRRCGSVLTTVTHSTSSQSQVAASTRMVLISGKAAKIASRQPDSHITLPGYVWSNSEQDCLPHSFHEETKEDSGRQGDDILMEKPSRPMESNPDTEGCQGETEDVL
Protocol: Agonist activity of compounds on the human PTH-1 receptor was determined in a reporter gene assay by transiently transfecting HEK-293 cells with plasmids encoding human PTH-1 receptor under control of the SV40 promoter and a luciferase reporter gene under control of cAMP responsive elements (CRE). See Himmler et al, J. Recept. Res. 13 (1993) 79-94, for further guidance on this assay. Transfected cells were exposed to serial dilutions of compounds for 4-5 hours followed by lysis of cells, determination of luciferase activity, and determination of compound efficacies and EC50 values through non-linear regression.
PTH (1-34) was used as an internal control in each experiment and compounds were tested in at least three independent experiments. To determine selectivity, compounds were tested in luciferase-based transcriptional reporter gene assays expressing the human PTH-2 receptor.

Row | Compound | EC50 (human PTH-1 receptor) [nM] | hPTHR-2/hPTHR-1 (human PTH-1 receptor) | EC50 (human PTH-2 receptor) [nM]
1 | CCCC[C@H](NC(=O)[C@H](CC(C)C)NC(=O)[C@H](CCC(N)=O)NC(=O)[C@@H](NC(=O)[C@H](CCC(=O)O)NC(=O)[C@H](CO)NC(=O)[C@@H](NC(=O)[C@@H](N)CO)C(C)C)[C@@H](C)CC)C(=O)N[C@@H](Cc1c[nH]cn1)C(=O)N[C@@H](CO)C(=O)N[C@@H](CC(C)C)C(=O)NCC(=O)N[C@@H](CCCCN)C(=O)N[C@@H](Cc1c[nH]cn1)C(=O)N[C@@H](CC(C)C)C(=O)N[C@@H](CC(N)=O)C(=O)N[C@@H](CO)C(=O)N[C@H](CC(=O)N[C@@H](CCC(=O)O)C(=O)N[C@@H](CCCNC(=N)N)C(=O)N[C@H](C(=O)N[C@@H](CCC(=O)O)C(=O)N[C@@H](Cc1cccc2ccccc12)C(=O)N[C@@H](CC(C)C)C(=O)N[C@@H](CCCNC(=N)N)C(=O)N[C@@H](CCCCN)C(=O)N[C@@H](CC(C)C)C(=O)N[C@@H](CC(C)C)C(=O)N[C@@H](CCC(N)=O)C(=O)N[C@@H](CC(=O)O)C(=O)N[C@H](C(=O)N[C@@H](Cc1c[nH]cn1)C(=O)N[C@@H](CC(N)=O)C(=O)N[C@@H](Cc1ccccc1)C(N)=O)C(C)C)C(C)C)[C@@H](C)CC [SEQ ID NO: 23, [Nle^8, Ser^10, β-hIle^18,1-Nal^23, Leu^27] hPTH (1-34)-NH2] (H-SVSEIQL[Nle]HSLGKHLNS[β3hI]ERVE[1Nal]LRKLLQDVHNF-NH2) | 0.18 | 95 | 17
2 | CCCC[C@H](NC(=O)[C@H](CC(C)C)NC(=O)[C@H](CCC(N)=O)NC(=O)[C@@H](NC(=O)[C@H](CCC(=O)O)NC(=O)[C@H](CO)NC(=O)[C@@H](NC(=O)[C@@H](N)CO)C(C)C)[C@@H](C)CC)C(=O)N[C@@H](Cc1c[nH]cn1)C(=O)N[C@@H](CCC(=O)O)C(=O)N[C@@H](CC(C)C)C(=O)NCC(=O)N[C@@H](CCCCN)C(=O)N[C@@H](Cc1c[nH]cn1)C(=O)N[C@@H](CC(C)C)C(=O)N[C@@H](CC(N)=O)C(=O)N[C@@H](CO)C(=O)N[C@H](CC(=O)N[C@@H](CCC(=O)O)C(=O)N[C@@H](CCCNC(=N)N)C(=O)N[C@H](C(=O)N[C@@H](CCC(=O)O)C(=O)N[C@@H](Cc1cccc2ccccc12)C(=O)N[C@@H](CC(C)C)C(=O)N[C@@H](CCCNC(=N)N)C(=O)N[C@@H](CCCCN)C(=O)N[C@@H](CC(C)C)C(=O)N[C@@H](CC(C)C)C(=O)N[C@@H](CCC(N)=O)C(=O)N[C@@H](CC(=O)O)C(=O)N[C@H](C(=O)N[C@@H](Cc1c[nH]cn1)C(=O)N[C@@H](CC(N)=O)C(=O)N[C@@H](Cc1ccccc1)C(N)=O)C(C)C)C(C)C)[C@@H](C)CC [SEQ ID NO: 24, [Nle^8, Glu^10, β-hIle^18,1-Nal^23, Leu^27] hPTH (1-34)-NH2] (H-SVSEIQL[Nle]HELGKHLNS[β3hI]ERVE[1Nal]LRKLLQDVHNF-NH2) | 0.13 | 24 | 3
3 | CCCC[C@H](NC(=O)[C@H](CC(C)C)NC(=O)[C@H](CCC(N)=O)NC(=O)[C@@H](NC(=O)[C@H](CCC(=O)O)NC(=O)[C@H](CO)NC(=O)[C@@H](NC(=O)[C@@H](N)CO)C(C)C)[C@@H](C)CC)C(=O)N[C@@H](Cc1c[nH]cn1)C(=O)N[C@@H](CC(N)=O)C(=O)N[C@@H](CC(C)C)C(=O)NCC(=O)N[C@@H](CCCCN)C(=O)N[C@@H](Cc1c[nH]cn1)C(=O)N[C@@H](CC(C)C)C(=O)N[C@@H](CC(N)=O)C(=O)N[C@@H](CO)C(=O)N[C@H](CC(=O)N[C@@H](CCC(=O)O)C(=O)N[C@@H](CCCNC(=N)N)C(=O)N[C@H](C(=O)N[C@@H](CCC(=O)O)C(=O)N[C@@H](Cc1cccc2ccccc12)C(=O)N[C@@H](CC(C)C)C(=O)N[C@@H](CCCNC(=N)N)C(=O)N[C@@H](CCCCN)C(=O)N[C@@H](CC(C)C)C(=O)N[C@@H](CC(C)C)C(=O)N[C@@H](CCC(N)=O)C(=O)N[C@@H](Cc1c[nH]cn1)C(=O)N[C@H](C(=O)N[C@@H](Cc1c[nH]cn1)C(=O)N[C@@H](CC(N)=O)C(=O)N[C@@H](Cc1ccccc1)C(N)=O)C(C)C)C(C)C)[C@@H](C)CC [SEQ ID NO: 25, [Nle^8, β-hIle^18,1-Nal^23, Leu^27, His^30] hPTH (1-34)-NH2] (H-SVSEIQL[Nle]HNLGKHLNS[β3hI]ERVE[1Nal]LRKLLQHVHNF-NH2) | 0.18 | 72 | 13
4 | CCCC[C@H](NC(=O)[C@H](CC(C)C)NC(=O)[C@H](CCC(N)=O)NC(=O)[C@@H](NC(=O)[C@H](CCC(=O)O)NC(=O)[C@H](CO)NC(=O)[C@@H](NC(=O)[C@@H](N)CO)C(C)C)[C@@H](C)CC)C(=O)N[C@@H](Cc1c[nH]cn1)C(=O)N[C@@H](CC(N)=O)C(=O)N[C@@H](CC(C)C)C(=O)NCC(=O)N[C@@H](CCCCN)C(=O)N[C@@H](Cc1c[nH]cn1)C(=O)N[C@@H](CC(C)C)C(=O)N[C@@H](CC(N)=O)C(=O)N[C@@H](CO)C(=O)N[C@H](CC(=O)N[C@@H](CCC(=O)O)C(=O)N[C@@H](CCCNC(=N)N)C(=O)N[C@H](C(=O)N[C@@H](CCC(=O)O)C(=O)N[C@@H](Cc1cccc2ccccc12)C(=O)N[C@@H](CC(C)C)C(=O)N[C@@H](CCCNC(=N)N)C(=O)N[C@@H](CCCCN)C(=O)N[C@@H](CC(C)C)C(=O)N[C@@H](CC(C)C)C(=O)N[C@@H](CCC(N)=O)C(=O)N[C@@H](CC(=O)O)C(=O)N[C@H](C(=O)N[C@@H](Cc1c[nH]cn1)C(=O)N[C@@H](CCCCN)C(=O)N[C@@H](Cc1ccccc1)C(N)=O)C(C)C)C(C)C)[C@@H](C)CC [SEQ ID NO: 28, [Nle^8, β-hIle^18,1-Nal^23, Leu^27, Lys^33] hPTH (1-34)-NH2] (H-SVSEIQL[Nle]HNLGKHLNS[β3hI]ERVE[1Nal]LRKLLQDVHKF-NH2) |  | 209 | 32
5 | CCCC[C@H](NC(=O)[C@H](CC(C)C)NC(=O)[C@H](CCC(N)=O)NC(=O)[C@@H](NC(=O)[C@H](CCC(=O)O)NC(=O)[C@H](CO)NC(=O)[C@@H](NC(=O)[C@@H](N)CO)C(C)C)[C@@H](C)CC)C(=O)N[C@@H](Cc1c[nH]cn1)C(=O)N[C@@H](CC(N)=O)C(=O)N[C@@H](CC(C)C)C(=O)NCC(=O)N[C@@H](CCCCN)C(=O)N[C@@H](Cc1c[nH]cn1)C(=O)N[C@@H](CC(C)C)C(=O)N[C@@H](CC(N)=O)C(=O)N[C@@H](CO)C(=O)N[C@H](CC(=O)N[C@@H](CCC(=O)O)C(=O)N[C@@H](CCCNC(=N)N)C(=O)N[C@H](C(=O)N[C@@H](CCC(=O)O)C(=O)N[C@@H](Cc1cccc2ccccc12)C(=O)N[C@@H](CC(C)C)C(=O)N[C@@H](CCCNC(=N)N)C(=O)N[C@@H](CCCCN)C(=O)N[C@@H](CC(C)C)C(=O)N[C@@H](CC(C)C)C(=O)N[C@@H](CCC(N)=O)C(=O)N[C@@H](CC(=O)O)C(=O)N[C@H](C(=O)N[C@@H](Cc1c[nH]cn1)C(=O)N[C@@H](CC(N)=O)C(=O)N[C@@H](CCCCN)C(N)=O)C(C)C)C(C)C)[C@@H](C)CC [SEQ ID NO: 30, [Nle^8, β-hIle^18,1-Nal^23, Leu^27, Lys^34] hPTH (1-34)-NH2] (H-SVSEIQL[Nle]HNLGKHLNS[β3hI]ERVE[1Nal]LRKLLQDVHNK-NH2; N-terminus assumed) | 0.1 | 173 | 17
6 | CCCC[C@H](NC(=O)[C@H](CC(C)C)NC(=O)[C@H](CCC(N)=O)NC(=O)[C@@H](NC(=O)[C@H](CCC(=O)O)NC(=O)[C@H](CO)NC(=O)[C@@H](NC(=O)[C@@H](N)CO)C(C)C)[C@@H](C)CC)C(=O)N[C@@H](Cc1c[nH]cn1)C(=O)N[C@@H](CC(N)=O)C(=O)N[C@@H](CC(C)C)C(=O)NC(C)(C)C(=O)N[C@@H](CCCCN)C(=O)N[C@@H](Cc1c[nH]cn1)C(=O)N[C@@H](CC(C)C)C(=O)N[C@@H](CC(N)=O)C(=O)N[C@@H](CO)C(=O)N[C@H](CC(=O)N[C@@H](CCC(=O)O)C(=O)N[C@@H](CCCNC(=N)N)C(=O)N[C@H](C(=O)N[C@@H](CCC(=O)O)C(=O)N[C@@H](Cc1cccc2ccccc12)C(=O)N[C@@H](CC(C)C)C(=O)N[C@@H](CCCNC(=N)N)C(=O)N[C@@H](CCCCN)C(=O)N[C@@H](CC(C)C)C(=O)N[C@@H](CC(C)C)C(=O)N[C@@H](CCC(N)=O)C(=O)N[C@@H](CC(=O)O)C(=O)N[C@H](C(=O)N[C@@H](Cc1c[nH]cn1)C(=O)N[C@@H](CC(N)=O)C(=O)N[C@@H](Cc1ccccc1)C(N)=O)C(C)C)C(C)C)[C@@H](C)CC [SEQ ID NO: 32, [Nle^8, Aib^12, β-hIle^18,1-Nal^23, Leu^27] hPTH (1-34)-NH2] (H-SVSEIQL[Nle]HNL[Aib]KHLNS[β3hI]ERVE[1Nal]LRKLLQDVHNF-NH2) |  | 55 | 13
